Laboratory results published in patent publication US11642362B2, “Methods of inhibiting cell proliferation and METTL8 activity” (NATIONAL UNIVERSITY OF SINGAPORE, priority 2017, dated 2023).

Key:
pS/TQ motif on Mettl8 = experiment: Flag IP and pS/TQ immunoblot of Flag-Mettl8 in HCT116 stable cells; assay type: cell-based, human
From the text: Since both ATM and p53 are tumor suppressors in response to DNA damage, inventors further explored the function of Mettl8 in DNA damage. […] Equal amount of lysates were subject to Flag immunoprecipitation (“IP”) with M-2 beads and washed extensively before being resolved on SDS-PAGE and followed by immunoblotting with an phosphorylation-specific antibody against pS/TQ motif (Cell signaling) and a Flag antibodu. The lysates were immunoblotted by anti-Flag, Actin, ATM pS1981, Chk2 pT68 and p53 p515 antibodies.
In this experiment, equal amount of lysate was immunopurified with M2 beads and probed for pS/TQ antibody, the lysate was checked for antibodies indicated in FIG. 7C.
Equal amounts of lysate were immunopurified with M2 beads and probed for pS/TQ antibody, the lysate was checked for antibodies indicated.

ATM, KAP1, Chk2, p53 = experiment: ATM inhibitor pre-treatment of Mettl8 mutant or knockout cells before irradiation (immunoblot); assay type: cell-based; settings: Mettl8 mutant or knockout cells pre-treated with ATM inhibitor before irradiation
Mettl8 [1] = experiment: Western blot of Mettl8 protein in E14 cells treated with STAT3 inhibitors; assay type: cell-based, mouse
Procedure: Total RNAs were extracted from E14 cells treated with STA-21 and STATTIC for 6 hr and analyzed by real-time PCR. […] The data are shown as the mean±SD from three independent experiments (*p<0.05). The cell lysates from treated E14 cells were also analyzed by Western blot. Consistent with the mRNA expression, the protein levels of Mettl8 were reduced with presence of STA-21 and STATTIC (FIG. 5J). The value of each band was calculated from three independent replicates and indicates the relative expression level after normalizing to the loading control Actin.

Mettl8 mRNA = experiment: Real-time PCR of Mettl8 mRNA in ESCs / E14 cells treated with STAT3 inhibitors; assay type: cell-based, mouse; settings: for Mettl8 mRNA expression (real-time PCR): E14 cells treated for 6 hr; for Mettl8 mRNA (real-time PCR): ESCs treated with 10 μM STAT3 inhibitor for 1 hr
Procedure: To investigated how STAT3 crosstalk with other potential pathways in pluripotency of embryonic stem cells (“ESCs”), inventors tried to identify factors that were regulated by STAT3 using mouse ESCs treated with STAT3 inhibitors STA-21 and STATTIC. Real-time PCR was performed to screen for changes when embryonic stem cells (ESCs) were treated with STAT3 inhibitor 10 μM STA-21 and STATTIC for 1 hr. RNAs were extracted with TRIZOL followed by reverse transcription. Total RNAs were extracted from E14 cells treated with STA-21 and STATTIC for 6 hr and analyzed by real-time PCR. […] The data are shown as the mean±SD from three independent experiments (*p<0.05). The cell lysates from treated E14 cells were also analyzed by Western blot. Consistent with the mRNA expression, the protein levels of Mettl8 were reduced with presence of STA-21 and STATTIC (FIG. 5J). The value of each band was calculated from three independent replicates and indicates the relative expression level after normalizing to the loading control Actin.

ATM = experiment: Camptothecin treatment of HCT116 WT and METTL8 KO cells, ATM activation immunoblot; assay type: cell-based, human; settings: 10 μM camptothecin 0-24 hr; Mettl8 knockout HCT116 cells compared with WT
Procedure: HCT116 WT and METTL8 KO cells were treated with 10 μM camptothecin for 0 h, 1 hr, 3 hr, 6 hr, 16 hr, and 24 hr. Equal amount of lysates were resolved on SDS-PAGE followed by immunoblotting with antibodies.

Mettl8 protein = Mettl8 protein level after cisplatin treatment (SDS-PAGE, immunoblotting); assay type: cell-based, human; settings: 293T, HCT116 and HepG2 cells; cisplatin 0, 10, 30, 60, 100, 150 μM for 24 h
Procedure: To further study modulation of Mettl8 protein, 293T, HCT116, and HepG2 cells were treated with different dosage of cisplatin (0, 10, 30, 60, 100, and 150 μM) for 24 h before cell lysates were collected and subjected to SDS-PAGE followed by immunoblotting with Mettl8 and Hsp90 antibodies.

[2] = test system: HCT116 wildtype and Mettl8 knockout cells; experiment: Cisplatin sensitivity MTS assay; assay type: cell-based, human; settings: Mettl8 knockout versus wildtype HCT116 cells
Procedure: (§1) To further study the relationship between cisplatin and Mettl8, MTS and colony survival assays were performed. In the MTS assay, HCT116 wildtype and Mettl8 knockout cells were seed in 96 well at 1000 cell/well density and treated with different dose of cisplatin. In the colony survival assay, 500 cells per well of HCT116 control and Mettl8 knockout cells were seeded into 6-well plates in triplicate and subjected to different dosage of cisplatin treatment for 2 h.

Mettl8 [3] = experiment: Mettl8 expression after treatment with interstrand crosslinking agents; assay type: cell-based
[4] = test system: HCT116 control and Mettl8 knockout cells; experiment: Cisplatin sensitivity colony survival assay; assay type: cell-based, human; settings: Mettl8 knockout versus control HCT116 cells; cisplatin 2 h, grown a week
Procedure: as §1
Cells were grown in fresh media for a week and the survival cell colonies were fixed and stained with crystal violet. Colonies with more than 50 cells were counted. The result was presented in ±SEM of percentage of colonies survived compared to untreated samples. […] This effect is dependent on p53 for cisplatin induced apoptosis (data not shown). This difference in sensitivity could be exploited in clinical context that patients with functional p53 and low Mettl8 tumor may benefit more from cisplatin treatment instead of radiotherapy.

HCT116 cells [5] = experiment: Cell growth (colony formation) assay, crystal violet; assay type: cell-based, human; settings: HCT116, 500 cells/well, 7 days, versus scramble shRNA / empty vector
Procedure: (§2) In the soft agar colony assay, HCT116 cells with Mettl8 wt or ΔSAM were seeded at 500 cells/well in 6-well plate in triplicate and after 2-week colonies grown up in soft agar was shown. Colonies with more than 50 cells were counted with Quantity One software. […] 7 days later, cells were fixed and stained with crystal violet. The images of plates were collected with ImageLab software.

Mettl8 [6] = experiment: STAT3 shRNA knockdown in E14 cells, Mettl8 mRNA and protein; assay type: cell-based, mouse; settings: Luc shRNA as control
Procedure: Luc shRNA was used as control. Data in FIG. 5K are shown as the mean±SD from three independent experiments. The value of each band in FIG. 5L was calculated from three independent replicates and indicates the relative expression level after normalizing to the loading control Actin.

Mettl8 [7] = experiment: shRNA knockdown of Mettl8 in HCT116 (lentivirus, Western blotting); assay type: cell-based, human; settings: HCT116, lentiviral pLKO1 shRNA, 72 h
Procedure: To study the functions of Mettl8, hairpin shRNA was ordered and cloned into pLKO1 vector by AgeI/EcoRI, with the following sequence:
The hairpin sequences in the shRNA were underlined. […]. Supernatant was harvested after 48 hours and cleared by filtration. Then viral solution was added to fresh HCT116 culture in the presence of 6 ug/ml polybrene. After 72 h, the cells were lysed and equal amount of lysate was resolved on SDS-PAGE for knock down efficiency by Western blotting with anti-Mettl8 and actin antibodies as indicated in FIG. 2.

[8] = 3H-SAM binding assay with GST-Mettl8 proteins on beads, scintillation counting; parameters: species or system human; settings: recombinant purified GST-Mettl8 wt and SAM mutant
Procedure: To test the ability of Mettl8 to bind SAM, equal amounts of GST, GST-Mettl8 WT and mutant proteins were conjugated on Glutathione sepharose 4B beads and incubated with ^3H-SAM for 30 min at 30° C. with empty beads control. After extensive washing, the beads were transferred to scintillation tubes and measured on liquid scintillation counter in triplicate.
(§3) As ATM is essential for cell checkpoint, the cell cycle profiles were studies in this experiment. The plasmid containing the cDNA of human Mettle8 SAM deletion mutant was constructed by PCR based mutagenesis method to delete the specific nucleotide sequence in the SAM domain as shown in FIG. 7A. After the plasmid was transfected into HCT116 wildtype cells, stable colonies of cell containing the plasmid were selected, which were called Mettl8 ΔSAM cells. The Mettle8 ΔSAM variant cDNA was also transduced into human skin fibroblast as shown in FIG. 7N by a lentivirus based method. These HCT116 stable cells were examined in cell cycle analysis (FIG. 9A) and soft agar colony assay (FIG. 9B).

HCT116 cells [9] = experiment: Soft agar colony assay; assay type: cell-based, human; settings: HCT116 stable cells, 500 cells/well, 2 weeks, compared to empty vector
Procedure: as §2

HCT116 stable cells = experiment: Cell cycle profiling by FACS of HCT116 stable cells; assay type: cell-based, human; settings: un-stressed conditions, versus empty vector and wild-type Mettl8
From the text: as §3
In addition, HCT116 stable cells with Mettl8 variant were fixed with 70% ethanol and stained with pI followed by cell cycle profiling on FACS and data were analysed with FlowJo software.

Molecule: O=c1cc(-c2cccc3c2Sc2ccccc2S3)oc(N2CCOCC2)c1 [Ku55933]
- prevention of Mettl8 phosphorylation by IR (pS/TQ motif on Mettl8; 1 μM Ku55933 pretreatment 1 hour, 10 Gy, harvested 1 h later, doses 0.1, 1, 5 μM tested): sufficient to prevent the phosphorylation of Mettl8
- irradiation-induced phosphorylation at the pS/TQ motif of Flag-Mettl8 (pS/TQ motif on Mettl8; HCT116 Flag-Mettl8 cells pretreated 1 hour with inhibitor (AZD7762 0.5 μM), then 10 Gy): reduced the phosphorylation
- hyper activation of ATM, KAP1, Chk2, p53 by irradiation (ATM, KAP1, Chk2, p53): either reverted or eliminated the hyper activation

Molecule: CC1CC(=O)c2c(ccc3c2C(=O)c2cccc(O)c2C3=O)C1 (stereo not shown) [STA-21, 8-hydroxy-3-methyl-3,4-dihydrotetraphene-1,7,12(2H)-trione]
- Mettl8 protein levels (Western blot) (Mettl8 [1]): reduced
- Mettl8 mRNA expression (real-time PCR) (Mettl8 mRNA): inhibited
- Mettl8 mRNA (real-time PCR) (Mettl8 mRNA): downregulated

Molecule: O=[N+]([O-])c1ccc2c(c1)S(=O)(=O)C=C2 [STATTIC, 6-Nitrobenzo[b]thiophene 1,1-dioxide]
- Mettl8 protein levels (Western blot) (Mettl8 [1]): reduced
- Mettl8 mRNA expression (real-time PCR) (Mettl8 mRNA): inhibited
- Mettl8 mRNA (real-time PCR) (Mettl8 mRNA): downregulated

Molecule: CC[C@@]1(O)C(=O)OCc2c1cc1n(c2=O)Cc2cc3ccccc3nc2-1 [camptothecin]
- ATM activation (ATM): caused hyperactivation of ATM

Molecule: N.N.[Cl][Pt][Cl] [cisplatin]
- Mettl8 protein level (Mettl8 protein): dramatically reduced
- sensitivity to cisplatin treatment (MTS assay) [2]: more sensitive
- Mettl8 expression at transcriptional level (Mettl8 [3]): downregulated at transcriptional level
- sensitivity to cisplatin treatment (colony survival assay) [4]: more sensitive

Molecule: CO[C@@]12[C@H](COC(N)=O)C3=C(C(=O)C(C)=C(N)C3=O)N1C[C@@H]1N[C@@H]12 [mitomycin C]
- Mettl8 expression at transcriptional level (Mettl8 [3]): downregulated at transcriptional level

Molecule: Mettl8 shRNA2: shRNA sequence GCGAGAGAATCATCATGGGAT, SEQ ID No: 3
- colony formation (HCT116 cells [5]): significantly reduced the colony formation

Molecule: STAT3 shRNA: shRNA sequence TTTGTGCTTAGGATGGCCC, SEQ ID No: 7; full sequence SEQ ID No: 8 (GATCCCCGGGCCATCCTAAGCACAAATTCAAGAGATTTGTGCTTAGGATGGCCCTTTTTA)
- Mettl8 mRNA (Mettl8 [6]): downregulation
- Mettl8 protein (Mettl8 [6]): downregulation

Molecule: shRNA: hairpin shRNA against Mettl8 cloned into pLKO1, SEQ ID NO: 15; hairpin matches M8 shRNA1 GTTGAGGGAATTTCCTGAAAT (CCGGGTTGAGGGAATTTCCTGAAATCTCGAGATTTCAGGAAATTCCCTCAACTTTTTTG)
- Mettl8 expression (knock down efficiency, Western blotting) (Mettl8 [7]): can knock down the expression of Mettl8

B1: Mettl8 ASAM variant: human Mettl8 variant with SAM domain deletion (aa 200-208), SEQ ID No. 18; competes with endogenous Mettl8 (protein)
chain: MNMIWRNSISCLRLGKVPHRYQSGYHPVAPLGSRILTDPAKVFEHNMWDHMQWSKEEEAAARKKVKENSAVRVLLEEQVKYEREASKYWDTFYKIHKNKFFKDRNWLLREFPEILPVDQKPEEKARESSWDHVKTSATNRFSRMHCPTVPDEKNHYEKSSGSSEGQSKTESDFSNLDSEKHKKGPMETGLFPGSNATFRNSVFPILNTLENSPESFLYCCDFASGAVELVKSHSSYRATQCFAFVHDVCDDGLPYPFPDGILDVILLVFVLSSIHPDRMQGVVNRLSKLLKPGGMLLFRDYGRYDKTQLRFKKGHCLSENFYVRGDGTRAYFFTKGEVHSMFCKASLDEKQNLVDRRLQVNRKKQVKMHRVWIQGKFQKPLHQTQNSSNMVSTLLSQD
- binding of SAM [8]: lost the ability to bind the SAM donor molecule
- soft agar colony numbers (HCT116 cells [9]): much reduced colony numbers
- cell cycle profile (HCT116 stable cells): more accumulation of G2/M populations
